Test results as given in patent US20100087481A1, “ORAL PHARMACEUTICAL FORMULATIONS FOR ANTIDIABETIC COMPOUNDS” (priority 2008, published 2010).
Where two headings read alike, the source gives them in different places.

Tests used:
[1] = Physical stability in selected oil-based media (visual); format: physicochemical
Description: Physical stability of the drug was monitored visually.

[2] = in aqueous solvents and in most organic solvents; cited from earlier work
[3] = Solubility in selected oil-based media; format: physicochemical; conditions: oil or lipid, read-out: Solubility, Concentration
[4] = Chemical stability in selected oil-based media; format: physicochemical
Method: Studies were performed over a 2 week period at −20° C., 2-8° C., 40° C./75% RH and 60° C. At the elevated temperatures, chemical stability was monitored in the presence and absence of argon. Additionally, the pH stability of the drug was assessed over a seven week period at 40° C./75% RH, pH 2, 3, 5, 7, 9, and 10. […] In oil-based media containing neat Capmul® MCM or phosphatidylcholine (Phospholipon® 90G, Phosal® 53 MCT), drug recovery was >99%. […] The degradation observed in Capmul® MCM was inhibited by the addition of argon.

O=S(=O)(Nc1cc(Cl)c(Oc2cnc3ccccc3c2)c(Cl)c1)c1ccc(Cl)cc1Cl.O=S(=O)(O)c1ccccc1 [besylate salt of compound 101, 2,4-Dichloro-N-[3,5-dichloro-4-(quinolin-3-yloxy)-phenyl]-benzenesulfonamide benzenesulfonate salt]
Physical stability (visual) ([1]; addition of 47% Capmul® MCM to oil-based media containing Phospholipon® 90G): inhibited solid formation
Physical stability (visual) ([1]; high concentrations of Capmul® (>80%)): solidification and cloudiness
Physical stability (visual) ([1]; warming then cooling compositions with more than 50% Phospholipon® 90G): formation of a fine suspension
Solubility in words [2]: sparingly soluble
solubility ([3]; Capmul® MCM (oil-based medium), in Capmul ® MCM): 16600 µg/mL
solubility ([3]; Capmul® PG8 (oil-based medium), in Capmul ® PG8): 2010 µg/mL
solubility ([3]; Captex® 200 (oil-based medium), in Captex ® 200): 450 µg/mL
solubility ([3]; Captex® 300EP (oil-based medium), in Captex ® 300EP): 280 µg/mL
solubility ([3]; Captex® 355 (oil-based medium), in Captex ® 355): 520 µg/mL
solubility ([3]; Crodamol® (oil-based medium), in Crodamol ®): 450 µg/mL
solubility ([3]; Inwitor 742 (oil-based medium), in Inwitor 742): 7930 µg/mL
solubility ([3]; Labrafac® CC (oil-based medium), in Labrafac ® CC): 290 µg/mL
solubility ([3]; Labrafil® M 1944 CS (oil-based medium), in Labrafil ® M 1944 CS): 2340 µg/mL
solubility ([3]; Labrasol® (oil-based medium), in Labrasol ®): 29200 µg/mL
solubility ([3]; Maisine 35-I (oil-based medium), in Maisine 35-I): 1160 µg/mL
solubility ([3]; Miglyol® 132 (oil-based medium), in Miglyol ® 132): 800 µg/mL
solubility ([3]; Miglyol® 810N (oil-based medium), in Miglyol ® 810N): 380 µg/mL
solubility ([3]; Miglyol® 812N (oil-based medium), in Miglyol ® 812N): 7930 µg/mL
solubility ([3]; Peceol (oil-based medium), in Peceol): 3940 µg/mL
solubility ([3]; Phosal® 53 MCT (oil-based medium), in Phosal ® 53 MCT): 43400 µg/mL
solubility ([3]; in Corn Oil): 160 µg/mL
solubility ([3]; in Super-refined soybean oil): 40 µg/mL
Drug degradation ([4]; in Capmul® MCM at 60° C.): 7%
Effect of argon on degradation ([4]; in Capmul® MCM, addition of argon): inhibited
Drug degradation ([4]; in Phosal® 53 MCT at 60° C.): no drug degradation
Degradation of the drug ([4]; in the presence of Labrasol®, Capmul® MCM and Phospholipon® 90G, 40° C., 2-week period): little or no degradation
